Drawing on the supplement of paper PMC11003180, this text covers drug sensitivity score for 38 compounds.

Holding throughout (assay): drug sensitivity score (DSS) from 5-dose viability curve (DSS (area-based score, 0 = no response)); higher = more sensitive (stronger viability inhibition); extreme values may be limits of the assay
Test [1] concerns MDCK p60AmotL2-inducible + doxycycline (p60AmotL2 expressing). The conditions noted are these: doxycycline: 10 ng/mL; 72 h. The method in brief:
(§1)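 Parental MDCK cells and MDCK cells with a doxycycline-inducible transgene were both grown with doxycycline at 10 ng/mL in the medium before plating, then dispensed at 2000 cells/well into 384-well plates pre-spotted with an oncology library of 528 drugs at five doses (1-10,000 nM). After 72 h at 37 °C, CellTiter-Glo luminescence was recorded and scaled on each plate between vehicle and positive controls. This scaled signal served as the viability readout, and drug sensitivity scores were derived from dose-response curve fits in the Breeze pipeline.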

The subject of test [2] is MDCK wild-type + doxycycline. The conditions noted are these: doxycycline: 10 ng/mL; 72 h. The method in brief: as §1
In test [3] the test system is MDCK wild-type - doxycycline. The conditions noted are these: doxycycline: none; 72 h. The method in brief: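 An oncology library of 528 drugs was pre-spotted at five doses (1-10,000 nM) in 384-well plates, and parental MDCK cells without doxycycline were added at 2000 cells/well. The plates were kept at 37 °C for 72 h. Drug sensitivity scores were obtained by fitting dose-response curves in the Breeze pipeline to CellTiter-Glo viability readings scaled per plate between vehicle and positive controls.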

Consider `N#Cc1ccc2[nH]c(O)c(-c3ccc(CN4CCOCC4)cn3)c2c1` [AZD-1080], for which the drug sensitivity score in test [1], in test [2] and in test [3] was 0 in each case.

`CC(C)[C@@H](CS(=O)(=O)C(C)C)N1C(=O)[C@@](C)(CC(=O)O)C[C@H](c2cccc(Cl)c2)[C@H]1c1ccc(Cl)cc1` [AMG-232]: the drug sensitivity score in test [1] was 9.8; in test [2], 7.2; in test [3], 5.9.

For the compound `C[C@H]1O[C@@H](O[C@H]2[C@@H](O)C[C@H](O[C@H]3[C@@H](O)C[C@H](O[C@H]4CC[C@@]5(C)[C@H](CC[C@@H]6[C@@H]5C[C@@H](O)[C@]5(C)[C@@H](C7=CC(=O)OC7)CC[C@]65O)C4)O[C@@H]3C)O[C@@H]2C)C[C@H](O)[C@@H]1O` [Digoxin], the results for the drug sensitivity score in test [1], in test [2] and in test [3] were 5.3, 11.2 and 6, respectively.

As for `CC1(C)C(C(=O)Nc2ccc(S(=O)(=O)c3ccc(NC(=O)C4C(C)(C)C4(C)C)cc3)cc2)C1(C)C` [BRD7116], the drug sensitivity score in test [1], in test [2] and in test [3] was 0 in each case.

As for `CCCCc1nc2cc(/C=C/C(=O)NO)ccc2n1CCN(CC)CC` [Pracinostat], the drug sensitivity score in test [1] was 17.7; in test [2] it was 15.9; in test [3], 15.

`O=C(c1ccc(F)c(F)c1Nc1ccc(I)cc1F)N1CC(O)([C@@H]2CCCCN2)C1` [Cobimetinib]: the drug sensitivity score in test [1] was determined as 9.8; in test [2], 3.4; in test [3] it was 3.9.

On to `O=C(NC[C@H](O)CN1CCc2ccccc2C1)c1cc(NC2COC2)ncn1`, for which the figures for the drug sensitivity score in test [1], in test [2] and in test [3] were 0.2, 0 and 0, respectively.

As to `CNC(=O)c1ccc2cc([C@@]3(O)CCn4cncc43)ccc2c1` [Orteronel], the drug sensitivity score in test [1], in test [2] and in test [3] was 0 each time.

For the compound `Nc1nc2cc(-c3ccc4ncc(C(=O)N5CCOCC5)n4c3)ccc2o1` [Serabelisib], the drug sensitivity score in test [1] worked out at 1.3; in test [2], 0.1; in test [3] it was 0.

Consider `N#Cc1ccc(COC[C@H]2O[C@@H](n3c(NCc4ccc(Cl)c(Cl)c4)nc4c(N)ncnc43)[C@H](O)[C@@H]2O)cc1`, for which the drug sensitivity score in test [1], in test [2] and in test [3] was 0 throughout.

`Cc1cc(C)c(CNC(=O)c2cc(-c3ccc(CN4CCOCC4)cc3)cc3c2cnn3C2CCCC2)c(=O)[nH]1` [EPZ-5687]: the drug sensitivity score in test [1], in test [2] and in test [3] was 0 each time.

Take `COc1ccccc1S(=O)(=O)Nc1ccc2c(c1)CN(C)C(=O)N2` [PFI-1]: the drug sensitivity score is 5.3 in test [1], 2.4 in test [2] and 0.3 in test [3].

Regarding `O=C(NC1CCNCC1)c1n[nH]cc1NC(=O)c1c(Cl)cccc1Cl` [AT7519], the drug sensitivity score in test [1] was 9.1; in test [2], 8.9; in test [3] it was 8.2.

Consider `Cc1cc(Nc2cc(N3CCN(C)CC3)nc(/C=C/c3ccccc3)n2)n[nH]1` [ENMD-2076], for which the drug sensitivity score in test [1] stood at 10.7; in test [2], 8.5; in test [3], 6.5.

As for `CN(C)C(=O)c1ccc(S(=O)(=O)c2ccc(NC(=O)[C@@](C)(O)C(F)(F)F)c(Cl)c2)cc1` [AZD7545], the drug sensitivity score in test [1], in test [2] and in test [3] was 0 each time.

Consider `Cc1ccc(NC(=O)c2ccc(CN3CC[C@H](N(C)C)C3)c(C(F)(F)F)c2)cc1Nc1nccc(-c2cncnc2)n1` [Bafetinib], for which the drug sensitivity score in test [1], in test [2] and in test [3] was 0 in each case.

On to `Cc1ccc(NS(=O)(=O)c2cccc(C#N)c2)c2[nH]cc(C#N)c12` [E7820], for which the results for the drug sensitivity score in test [1], in test [2] and in test [3] were 20.4, 19.9 and 14.5, respectively.

With `CC[C@@H]1C(=O)N(C)c2cnc(Nc3ccc(C(=O)NC4CCN(C)CC4)cc3OC)nc2N1C1CCCC1` [BI 2536], the drug sensitivity score in test [1] worked out at 15.9; in test [2] it was 15.6; in test [3] it was 19.9.

Consider `COc1cc(OC)c(/C=C/S(=O)(=O)Cc2ccc(OC)c(NCC(=O)O)c2)c(OC)c1` [Rigosertib], for which the values for the drug sensitivity score in test [1], in test [2] and in test [3] were 26.8, 26.5 and 24, respectively.

Take `C=CC(=O)Nc1cccc(Nc2nc(Nc3ccc(OCCOC)cc3)ncc2F)c1` [Spebrutinib]: the values for the drug sensitivity score in test [1], in test [2] and in test [3] were 0.8, 0 and 0, respectively.

Consider `Nc1ccccc1NC(=O)c1ccc(CNc2nccc(-c3cccnc3)n2)cc1` [Mocetinostat], for which the results for the drug sensitivity score in test [1], in test [2] and in test [3] were 6.2, 8.4 and 8.1, respectively.

Turning to `Cn1cc(C2=C(c3cn(C4CCN(Cc5ccccn5)CC4)c4ccccc34)C(=O)NC2=O)c2ccccc21` [Enzastaurin], the drug sensitivity score in test [1], in test [2] and in test [3] was 0 in each case.

Regarding `CCn1cc(-c2ccnc3[nH]c(-c4cccc(CN(C)C)c4)cc23)c(-c2ccc(NC(=O)N(C)C)cc2)n1`, the drug sensitivity score in test [1] stood at 7.1; in test [2], 1.9; in test [3], 0.4.

Turning to `CC(C)n1nc(-c2ccc3oc(N)nc3c2)c2c(N)ncnc21` [Sapanisertib], the drug sensitivity score was determined as 13.4 in test [1], 9.8 in test [2] and 8.1 in test [3].

Turning to `CN(C)CCOc1ccc(/C(=C(/CCCl)c2ccccc2)c2ccccc2)cc1` [Toremifene], the drug sensitivity score was 4.6 in test [1], 3.6 in test [2] and 0 in test [3].

`CC1=C(/C=C/C(C)=C/C=C/C(C)=C/C(=O)O)C(C)(C)CCC1` [Tretinoin]: the drug sensitivity score in test [1] is 0; in test [2], 0; in test [3] it was 0.7.

In the case of `Cc1cccc(CC(=O)N2CCc3c2ccc(-c2cn(C)c4ncnc(N)c24)c3F)n1`, the drug sensitivity score in test [1], in test [2] and in test [3] was 0 throughout.

Turning to `O=C(/C=C/c1cccnc1)NCCCCC1CCN(C(=O)c2ccccc2)CC1` [Daporinad], the drug sensitivity score in test [1] is 29.3; in test [2], 29.1; in test [3], 29.3.

Take `Cn1cnc2c(F)c(Nc3ccc(Br)cc3F)c(C(=O)NOCCO)cc21` [Binimetinib]: the drug sensitivity score was 5.3 in test [1], 0 in test [2] and 0 in test [3].

Turning to `O=C(CCNC(=O)c1ccc(OC(F)(F)F)cc1)N[C@@H]1CCCc2ccccc21` [ML390], the drug sensitivity score in test [1] is 18.3; in test [2] it was 14.5; in test [3], 13.8.

Consider `CN1CCN(c2ccc3nc(-c4c(N)c5c(F)cccc5[nH]c4=O)[nH]c3c2)CC1` [Dovitinib], for which the drug sensitivity score in test [1] came out at 0; in test [2] it was 2.5; in test [3] it was 0.

With `Nc1nc2[nH]cc(CCc3ccc(C(=O)N[C@@H](CCC(=O)O)C(=O)O)cc3)c2c(=O)[nH]1` [Pemetrexed], the results for the drug sensitivity score in test [1], in test [2] and in test [3] were 7.1, 5.3 and 5.5, respectively.

Consider `CN(C)Cc1ccc(S(=O)(=O)n2ccc(/C=C/C(=O)NO)c2)cc1` [Resminostat], for which the values for the drug sensitivity score in test [1], in test [2] and in test [3] were 10.4, 8.8 and 5, respectively.

Consider `C[C@@H]1COCCN1c1cc(C2([S@](C)(=N)=O)CC2)nc(-c2cc[nH]c3nccc2-3)n1` [AZD6738], for which the values for the drug sensitivity score in test [1], in test [2] and in test [3] were 6.7, 3.4 and 1.3, respectively.

Regarding `CCCCCOC(=O)Nc1nc(=O)n([C@@H]2O[C@H](C)[C@@H](O)[C@H]2O)cc1F` [Capecitabine], the drug sensitivity score in test [1] is 7.1; in test [2], 7; in test [3], 5.1.

On to `O=C1NC(=O)[C@@H](c2cn3c4c(cccc24)CCC3)[C@@H]1c1c[nH]c2ccccc12` [Tivantinib], for which the drug sensitivity score is 2.7 in test [1], 3.4 in test [2] and 1.6 in test [3].

On to `CC[C@@]1(O)C(=O)OCc2c1cc1n(c2=O)Cc2cc3c(CN(C)C)c(O)ccc3nc2-1` [Topotecan], for which the drug sensitivity score in test [1] was found to be 11.5; in test [2], 10.1; in test [3], 8.1.

In the case of `COc1ccc(-c2nc(N3CCOCC3)c3sc(CN(C)c4ncc(C(=O)NO)cn4)cc3n2)cn1` [CUDC-907], the figures for the drug sensitivity score in test [1], in test [2] and in test [3] were 30.3, 28.3 and 27.2, respectively.
